Measured values: US20080207885A1, “Method for site-specific labeling of RNA using a deoxyribozyme” (priority 2007, published 2008)

Key:
Format in all cases: biochemical
[1] = system: 10DM24-C44T mutant deoxyribozyme; test: Ligation of NTP substrate with 10DM24 variant in which the terminal P4 nucleotide is changed C→T, cofactor RΔ; settings: for krel = kobs,NTP*/kobs,NTP: relative to ATP
Experimental: (§1) General Description of Kinetic Assays. All kinetic assays with the 10DM24 deoxyribozyme and its variants were performed according to established methods (Flynn-Charlebois, et al. (2003) supra; Wang and Silverman (2003) supra). The 5′-^32P-labeled RNA substrate (L for “left-hand substrate”) that provides the branch-site adenosine was the limiting reagent relative to 10DM24 (E) and the truncated cofactor RNA (RΔ; R originally derived from “right-hand substrate”). The ratio L:E:RΔ was 1:10:30, with 0.25 μM 10DM24. The cofactor RΔ was 5′-phosphorylated unless otherwise stated. The RNA substrate L, deoxyribozyme 10DM24 and cofactor RΔ were annealed in 5 mM HEPES, pH 7.5, 15 mM NaCl, 0.1 mM EDTA by heating at 95° C. for 3 minutes and cooling on ice for 5 minutes. The ligation reactions were performed with the appropriate concentration of NTP substrate (0.05-50 mM) at a final buffer concentration of 100 mM CHES, pH 9.0, 150 mM NaCl, 2 mM KCl, and 40-400 mM MgCl2 at 37° C. for up to 5 hours. The combination of 1 mM NTP and 40 mM MgCl2 was defined as “standard incubation conditions”; 10 mM NTP and 150 mM MgCl2 was defined as “enhanced incubation conditions”. At appropriate timepoints, aliquots were removed from the sample, quenched into stop solution (80% formamide, 1× TB [89 mM each Tris and boric acid, pH 8.3], and 50 mM EDTA containing 0.025% bromophenol blue and xylene cyanol) and stored at −20° C. prior to analysis. Samples were separated by 20% denaturing PAGE at 30 W for 115 minutes and imaged with a PHOSPHORIMAGER. The resulting data were fit to the equation yield=Y·(1−e^−kt), where k=kobs and Y=final yield.
Focus was then placed on the purine NTPs (GTP, ATP) and their derivatives. When 1 mM ATP was provided as a small molecule substrate in place of GTP using the original 10DM24 sequence and RΔ, no reaction was observed (<1% in 5 hours). […] Furthermore, the kobs increased sixteen-fold to 0.013 min^−1 under enhanced conditions with 10 mM ATP (82% yield in 3 hours).

10DM24 deoxyribozyme [2] = test: 10DM24-catalyzed ligation of small-molecule NTP substrate to branch-site adenosine of RNA substrate L with cofactor RΔ; settings: for kobs,enh/kobs,std: GTP series; for krel = kobs,NTP*/kobs,NTP: relative to GTP
Experimental: as §1
Use of Free NTPs as Substrates. It was determined whether 10DM24 could catalyze ligation with free GTP as a substrate (see FIG. 1B), thereby transferring guanosine 5′-monophosphate (GMP) to the branch-site adenosine 2′-hydroxyl group. When RΔ, an oligoribonucleotide cofactor that corresponds to all of the remaining nucleotides of R, was added to 10DM24 along with GTP, ligation was efficient (FIG. 8; 94% yield in 5 hours and kobs 0.034 min^−1 under the standard incubation conditions of 1 mM GTP and 40 mM MgCl2 at pH 9.0, 37° C.). The RNA product with the single added guanosine at the branch-site adenosine was PAGE-purified and the identity confirmed by partial alkaline hydrolysis (50 mM NaHCO3 at 95° C. for 5 minutes) and MALDI mass spectrometry (m/z calcd. 5433, found 5437±5).

10DM24 deoxyribozyme [3] = test: Ligation of GTP or pppGpG in presence of shorter cofactor RΔΔ; settings: RΔΔ cofactor, 20 mM NTP and 150 mM MgCl2, pH 9.0, 37° C.
Experimental: It was subsequently shown that a binding site for an NTP cofactor can be located adjacent to the substrate binding site. This was achieved by removing an additional nucleotide from the RΔ cofactor, forming the shorter RΔΔ cofactor which required two added nucleotides to reconstitute the complete P4 region (FIG. 10). The 10DM24-catalyzed ligation reaction of GTP in the presence of the two-nucleotide short cofactor RΔΔ was performed with the 5′-^32P-labeled RNA substrate (L) that provides the branch-site adenosine as the limiting reagent. For kinetic assays, the ratio of L:E:RΔΔ was 1:10:30 with 0.25 μM deoxyribozyme (E). For isolation of the reaction products, the ratio L:E:RΔΔ was 1:2:3 with 1.5 μM deoxyribozyme. The reaction was performed under the enhanced incubation conditions with 20 mM GTP and 150 mM MgCl2 in 100 mM CHES, pH 9.0, 150 mM NaCl, and 2 mM KCl at 37° C. for up to 7 hours. […] Both products were isolated and shown by partial alkaline hydrolysis to be branched with the connectivities A-G and A-GG (where A is the branch-site adenosine).
It was contemplated that the new A-GG product was formed by initial templated but otherwise uncatalyzed synthesis of a GG dinucleotide (i.e., pppGpG) from two GTP molecules, followed by 10DM24-catalyzed branch formation using this dinucleotide. […] The reaction was performed under the enhanced incubation conditions of 20 mM GTP and 150 mM MgCl2. […] The pppGpG dinucleotide was synthesized independently using T7 RNA polymerase (Huang, et al. (1998) supra) and led solely to the A-GG product. Although the pppGpG substrate had Kd,app of >1 mM with RΔΔ, similar to Kd,app for GTP with RΔ, the ligation reaction with pppGpG and RΔΔ had kobs six-fold higher than for the analogous reaction with GTP and RΔ (Table 8).
Similar experiments were performed using the mutant 10DM24 deoxyribozyme that has CTTT rather than CCTT in the P4 region (FIG. 11). For the DNA-catalyzed ligation of pppGpG, the 5′-^32P-labeled RNA with the branch-site adenosine (L) was incubated with the 10DM24 deoxyribozyme (E) and the cofactor RΔΔ in the ratio of L:E:RΔΔ=1:10:30 in the presence of 1 mM pppGpG and 40 mM MgCl2 in 100 mM CHES pH 9.0, 150 mM NaCl, and 2 mM KCl at 37° C. The analysis of the ligation reaction was performed as described herein. […] This is consistent with the model that pppGpG and the first two nucleotides of RΔΔ together reconstitute the P4 helix. When the ligation reaction with pppGpG was tested in the presence of RΔ instead of RΔΔ, the ligation product A-GG was formed, but with a 10-fold decrease in kobs (squares in FIG. 11). Because RΔ provides an extraneous G nucleotide when combined with pppGpG (see legend of FIG. 11), some disruption in activity is perhaps anticipated. […] This is consistent with the observation that GTP was also not a substrate for the 10DM24-C44T mutant deoxyribozyme.
The ligation reaction of pppGpG was also performed using a variety of pppGpG concentrations with the parent 10DM24 deoxyribozyme in the presence of RΔΔ and 40 mM MgCl2. In FIG. 12, the kobs values are plotted versus [pppGpG] and fit to kobs=kmax·[pppGpG]/(Kd,app+[pppGpG]). The Kd,app for pppGpG was >1 mM.

[4] = enhanced incubation conditions: 10 mM NTP, 150 mM MgCl2, pH 9.0, 37° C.
[5] = standard incubation conditions: 1 mM NTP, 40 mM MgCl2, pH 9.0, 37° C., RΔ, ATP series
[6] = enhanced incubation conditions: 10 mM NTP, 150 mM MgCl2, 100 mM CHES pH 9.0, 37° C.
[7] = standard incubation conditions: 1 mM NTP, 40 mM MgCl2, 100 mM CHES pH 9.0, 150 mM NaCl, 2 mM KCl, 37° C., RΔ
[8] = standard conditions except with 50 mM CHES

| Molecule | kobs,enh/kobs,std ([1]; ATP series) | ligation yield %, 3 h ([1]; enhanced incubation conditions) [%] | kobs [1, 4] [min⁻¹] | krel = kobs,NTP*/kobs,NTP ([1]; enhanced incubation conditions) | ligation yield %, 5 h ([1]; standard incubation conditions) [%] | kobs [1, 5] [min⁻¹] | krel = kobs,NTP*/kobs,NTP ([1]; standard incubation conditions) | kobs,enh/kobs,std (10DM24 deoxyribozyme [2]) | ligation yield %, 3 h (10DM24 deoxyribozyme [2]; enhanced incubation conditions) [%] | kobs (10DM24 deoxyribozyme [2]; [6]) [min⁻¹] | krel = kobs,NTP*/kobs,NTP (10DM24 deoxyribozyme [2]; enhanced incubation conditions) | ligation yield %, 5 h (10DM24 deoxyribozyme [2]; standard incubation conditions) [%] | kobs (10DM24 deoxyribozyme [2]; [7]) [min⁻¹] | krel = kobs,NTP*/kobs,NTP (10DM24 deoxyribozyme [2]; standard incubation conditions) | further results |
| --- | --- | --- | --- | --- | --- | --- | --- | --- | --- | --- | --- | --- | --- | --- | --- |
| Nc1nc(N)c2ncn(C3OC(COP(=O)(O)OP(=O)(O)OP(=O)(O)O)C(O)C3O)c2n1 (stereo not shown) [DTP, 2,6-diaminopurine ribonucleoside triphosphate] | 8 | 90 | 0.027 | 2.1 | 68 | 0.0032 | 4.0 |  |  |  |  |  |  |  |  |
| Nc1nc2c(ncn2COCCOP(=O)(O)OP(=O)(O)OP(=O)(O)O)c(=O)[nH]1 [G^acv-TP, acyclovir triphosphate] |  |  |  |  |  |  |  | >7 | 14 | 0.0007 | 0.003 | <1 | <0.0001 | <0.0003 | kobs diminished relative to GTP (10DM24 deoxyribozyme [2]): ~300 fold |
| O=P(O)(O)OP(=O)(O)OP(=O)(O)OC[C@H]1O[C@@H](n2cnc3c(O)ncnc32)[C@H](O)[C@@H]1O [ITP, inosine triphosphate] |  |  |  |  |  |  |  | 21 | 84 | 0.014 | 0.05 | 25 | 0.0007 | 0.02 |  |
| Nc1ncnc2c1ncn2[C@@H]1O[C@H](COP(=O)(O)OP(=O)(O)OP(=O)(O)O)[C@@H](O)[C@@H]1O [ara-ATP, arabino-ATP] | 13 | 44 | 0.005 | 0.41 | 13 | 0.0004 | 0.50 |  |  |  |  |  |  |  |  |
| Nc1ncc2ncn([C@H]3C[C@H](O)[C@@H](COP(=O)(O)OP(=O)(O)OP(=O)(O)O)O3)c2n1 [d2AP-TP] | >8 | 17 | 0.0008 | 0.06 | <1 |  | <0.1 |  |  |  | 0.003 |  |  | <0.0003 | kobs ([1]; standard conditions with 5′-OH-RΔ): <0.0001^[c] min^−1 |
| Nc1ncnc2c1ncn2[C@H]1C[C@H](O)[C@@H](COP(=O)(O)OP(=O)(O)OP(=O)(O)O)O1 [dATP] | 19 | 65 | 0.007 | 0.56 | 17 | 0.0004 | 0.50 |  |  |  |  |  |  |  |  |
| Nc1nc2c(ncn2[C@H]2C[C@H](O)[C@@H](COP(=O)(O)OP(=O)(O)OP(=O)(O)O)O2)c(=O)[nH]1 [dGTP, 2′-deoxyGTP] |  |  |  |  |  |  |  | 4 | 90 | 0.081 | 0.31 | 88 | 0.020 | 0.60 | reaction products formed (10DM24 deoxyribozyme [3]): only the single-nucleotide addition product |
| Nc1ncnc2c1ncn2[C@H]1CC[C@@H](COP(=O)(O)OP(=O)(O)OP(=O)(O)O)O1 [ddATP] |  |  |  |  | 25 | 0.0007 | 0.87 |  |  |  |  |  |  |  |  |
| Nc1nc2c(ncn2[C@H]2CC[C@@H](COP(=O)(O)OP(=O)(O)OP(=O)(O)O)O2)c(=O)[nH]1 [ddGTP, 2′,3′-dideoxyGTP] |  |  |  |  |  |  |  |  |  |  |  |  |  |  | kobs (10DM24 deoxyribozyme [2]; [8]): 0.013 min⁻¹; ligation yield %, 5 h (10DM24 deoxyribozyme [2]; [8]): 85%; krel = kobs,NTP*/kobs,NTP (10DM24 deoxyribozyme [2]; [8]): 0.38 |
| C2-C3-cleaved GTP [G^clv-TP] |  |  |  |  |  |  |  | >3 | 6 | 0.0003 | 0.001 | <1 | <0.0001 | <0.0003 | kobs diminished relative to GTP (10DM24 deoxyribozyme [2]): approximately 1000 fold |
